Results: patent US8187821B2, “Compositions and methods for the modulation of PGRMC1” (University of Utah Research Foundation, priority 2008, dated 2012)
pKd: −log10 of the molar value. Like-named read-outs stand apart in the source and are kept apart here.

Tests used:
[1] = PGRMC1 binding assay control: non-specific [^3H] ligand association with membranes from untransformed bacteria (−PGRMC1); set-up: species or system E. coli; settings: for Q1 / Q2: two binding site model; for Q1: number of non-specific sites; for Q2: number of specific sites
Experimental: IPTG-induced cells were harvested by centrifugation (5,000 rpm; 5 min) and washed with ice-cold H2O. The pellet was resuspended in 5 mL buffer A (50 mM Tris-HCl pH 7.5, 150 mM NaCl, 0.1% NP40, and 10% glycerol) with 5-10 mg lysozyme, and incubated on ice for 30 min. The cells were then disrupted by three bursts of sonication (45 sec) at high intensity with a 45 sec cooling period between bursts. Soluble material was removed by centrifugation (15,000 rpm, 10 min) and the pellet resuspended in 5 mL buffer A. His10-PGRMC1 (His10 disclosed as SEQ ID NO: 14) was confirmed to be present in purified membranes by SDS-PAGE followed by Coomassie stain and western blot using anti-tetra-His (SEQ ID NO: 15) antibody (Qiagen). Total protein in the His10-PGRMC1 (His10 disclosed as SEQ ID NO: 14) transformed and untransformed purified membranes was determined by the Bradford method and membranes were normalized to 10 μg/μL total protein (diluted with buffer A). Purified membranes were then aliquoted and stored frozen until use.
The standard 10 μL binding reaction contained 10 μp purified membranes (total protein) and 10 μM [^3H] progesterone or [^3H] cholesterol (3,000-5,000 cpm) in buffer A: 20% ethanol. Stock solutions (100 μM) of [^3H] cholesterol and [^3H] progesterone containing ˜4×10^4 cpm/μL, were prepared in 95% ethanol. Reactions were prepared in clear 2.0 mL microcentrifuge tubes on ice. To start the reaction, the microfuge tube was briefly mixed (vortex) and placed at 37° C. Following a 10 to 30 min incubation, the tubes were centrifuged in a microfuge (˜13,000 rpm) for 2 min. The supernatant was carefully removed and the pellet was washed with an additional 10 μL water. After a second round of centrifugation (2 min; 13,000 rpm), the resulting supernatant was combined with the first and the pellet was resuspended in 20 μL H2O, Scintillation fluid (700 μL Wallac Optiflour) was added to each fraction and the fractions were mixed extensively. The fractions were then counted in a multi-well scintillation counter (Wallac Microbeta Triluxmax, Waltham, Mass.) for 30 seconds each. Binding are reported as μ/moles of ligand bound per mg of membrane protein. His10-PGRMC1 (His10 disclosed as SEQ ID NO: 14)-specific binding is reported as the difference in binding between transformed and untransformed bacteria. Experimental deviations from the standard assay conditions are noted in individual figure legends.
In order to better understand PGRMC1's biological function and to study ligand binding, an in vitro binding assay was developed. E. coli BL21 codon plus (RIPL) cells were transformed with a vector encoding PGRMC1 that was epitope tagged with 10 histidine (SEQ ID NO: 14) residues at the NH2-terminus. Untransformed BL21 cells were used as the control. A purification procedure was performed to remove soluble proteins and cell components from the transformed (+PGRMC1) and untransformed (−PGRMC1) bacterial membranes. The resulting purified membranes were confirmed for the presence and absence of His10-PGRMC1 (His10 disclosed as SEQ ID NO: 14) respectively by Coomassie stain and western blot using anti-His antibody. The membranes with [^3H] progesterone or [^3H] cholesterol were then incubated. The membranes were spun out, washed, and counted in a scintillation counter. His10-PGRMC1 (His10 disclosed as SEQ ID NO: 14) specific binding was then determined by subtracting total membrane-associated ligand (nmols/mg protein) in membranes prepared from untransformed bacteria (−PGRMC1) with membranes purified from bacteria expressing His10-PGRMC1 (His10 disclosed as SEQ ID NO: 14) (+PGRMC1).
To further explore the nature of ligand binding to His10-PGRMC1 (His10 disclosed as SEQ ID NO: 14), several in silico modeling experiments fitting the saturation data to different models of ligand binding were performed. The best statistical fit of the data was to a two binding site model. […]

His10-PGRMC1 [2] = molecular target: T1, His10-PGRMC1 (Homo sapiens, UniProt O00264); experiment: Coupled time-course proteolysis experiment (protease-sensitive vs protease-resistant specific binding); settings: trypsin after ligand incubation, FIG. 10
T1 construct: a product containing the full length coding region of PGMRC1 flanked by Nde1 and BamHI restriction sites; made in house; host or cells: E. coli BL21 (DE3) / BL21 codon plus (RIPL); purified bacterial membranes
T1 sequence (O00264 whole entry): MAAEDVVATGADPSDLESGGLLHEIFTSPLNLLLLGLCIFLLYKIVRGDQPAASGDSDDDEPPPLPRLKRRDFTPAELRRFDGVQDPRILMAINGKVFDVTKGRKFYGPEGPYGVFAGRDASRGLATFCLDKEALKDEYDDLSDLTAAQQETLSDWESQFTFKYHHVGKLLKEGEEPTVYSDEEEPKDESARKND
Description: (§1) Since data from the competition assays indicate that progesterone and cholesterol bind to the same site within His10-PGRMC1 (His10 disclosed as SEQ ID NO: 14), the reason for the observation of more cholesterol binding in our assays was examined. There appear to be two plausible explanations: one possibility is that there are more cholesterol-specific binding sites on His10-PGRMC1 (His10 disclosed as SEQ ID NO: 14) that comprise the increase in observed binding; the other is that His10-PGRMC1 (His10 disclosed as SEQ ID NO: 14) is catalyzing the incorporation of cholesterol into the membrane. To distinguish between these possibilities, a coupled time-course proteolysis experiment was performed. In these studies, [^3H] progesterone and [^3H] cholesterol were incubated with membranes ±His10-PGRMC1 (His10 disclosed as SEQ ID NO: 14) for increasing time periods. At the end of the incubation period, the membranes were isolated, washed, and resuspended in a trypsin solution to remove all His10-PGRMC1 (His10 disclosed as SEQ ID NO: 14) protein. In this manner any ligand specifically bound to His10-PGRMC1 (His10 disclosed as SEQ ID NO: 14) would be protease-sensitive and be removed from the membrane fraction. Any ligand incorporated into the membrane or other protected site will be protease-resistant and remain in the membrane fraction. After proteolysis the reactions were separated by centrifugation into protease-resistant (membrane) and protease-sensitive (supernatant) fractions and ligand amount determined. […] Total specific binding of progesterone (FIG. 10A, diamonds) increasing over time and occurring at levels consistent with previous studies was observed. […] It is important to note that this ligand incorporation reaction is specific to bound cholesterol as it was observed that all bound progesterone was protein associated. Collectively our findings describe an important and previously uncharacterized function for PGRMC1 and sterol binding proteins in general, that of catalyzing the incorporation of cholesterol into membranes.

His10-PGRMC1 [3] = experiment: as above; set-up: species or system human; settings: trypsin after ligand incubation, FIG. 10
Description: as §1

[4] = Solubility of ligand in the binding assay; assay type: physicochemical; settings: binding assay buffer; read-out: concentration above which only partially soluble in the assay
Experimental: Next, the question of whether binding of ligand to His10-PGRMC1 (His10 disclosed as SEQ ID NO: 14) is saturable was examined. […] Ligand binding time was held constant while increasing the ligand concentration by half logs in each experiment. The ligand concentration spanned four orders of magnitude from lowest to highest. […] Cholesterol was only partially soluble in our assay at concentrations greater than 3 mM so testing saturation at higher concentrations was unable to be performed.

[5] = first category of sites, present in both +PGRMC1 and −PGRMC1 membranes, read-out: Kd of non-specific binding
[6] = two binding site model fit of saturation data, −PGRMC1 membranes, non-specific site, read-out: Kd1

CC(C)CCC[C@@H](C)[C@H]1CC[C@H]2[C@@H]3CC=C4C[C@@H](O)CC[C@]4(C)[C@H]3CC[C@]12C [Cholesterol, cholesterol]
pKd [1, 5]: ~3.00 | pKd [1, 6]: 3.05 | Q1 ([1]; −PGRMC1 membranes): 8.4 × 10^9 Sites | Q2 ([1]; −PGRMC1 membranes): 0 Sites | Membrane-Associated [^3H] Ligand ([1]; −PGRMC1 membranes, Protease −): 3.7 ± 0.3 nmoles/mg protein | protease-sensitive (protein-associated) specific binding (His10-PGRMC1 [2]): decreased over time | protease-resistant (membrane-associated) specific binding (His10-PGRMC1 [3]): increasingly protease-resistant | solubility [4]: > 3000 µM

CC(=O)[C@H]1CC[C@H]2[C@@H]3CCC4=CC(=O)CC[C@]4(C)[C@H]3CC[C@]12C [Progesterone, progesterone]
pKd [1, 5]: ~3.00 | pKd [1, 6]: 2.77 | Q1 ([1]; −PGRMC1 membranes): 8.4 × 10^9 Sites | Q2 ([1]; −PGRMC1 membranes): 0 Sites | Membrane-Associated [^3H] Ligand ([1]; −PGRMC1 membranes, Protease + (trypsin before ligand binding)): 1.6 ± 0.2 nmoles/mg protein | Membrane-Associated [^3H] Ligand ([1]; −PGRMC1 membranes, Protease −): 2.4 ± 0.1 nmoles/mg protein | protease-sensitive (protein-associated) specific binding (His10-PGRMC1 [2]): essentially all | protease-resistant (membrane-associated) specific binding (His10-PGRMC1 [3]): virtually no
